Laboratory results taken from US8217029B2, “Oxazolidinone antibiotics” (Actelion Pharmaceuticals Ltd, priority 2007, dated 2012).
In brackets after ≈: the same amount, converted by molar mass.

System: S aureus A798
Test: Minimal inhibitory concentration (MIC), microdilution method in cation-adjusted Mueller-Hinton Broth following NCCLS guidelines
Format: cell-based
Details: pH of test medium 7.2-7.3
Description: These assays have been performed following the description given in “Methods for dilution Antimicrobial Susceptibility Tests for Bacteria that Grow Aerobically, 4th ed.; Approved standard: NCCLS Document M7-A4; National Committee for Clinical Laboratory Standards Villanova, Pa., USA, 1997”. Minimal inhibitory concentrations (MICs; mg/l) were determined in cation-adjusted Mueller-Hinton Broth by a microdilution method following NCCLS guidelines (National Committee for Clinical Laboratory Standards. Methods for Dilution Antimicrobial Susceptibility). The pH of the test medium was 7.2-7.3. All Example compounds were tested against several Gram positive and Gram negative bacteria.

COc1ccc2nccc(N3CCC(O)(CC4CN(c5ccc6c(c5)OCCO6)C(=O)O4)CC3)c2n1 (racemic) [Example 5, (RS)-3-(2,3-Dihydro-benzo[1,4]dioxin-6-yl)-5-[4-hydroxy-1-(6-methoxy-[1,5]naphthyridin-4-yl)-piperidin-4-ylmethyl]-oxazolidin-2-one] and COc1ccc2nccc(N3CCN(CC4CN(c5ccc6c(c5)OCCO6)C(=O)O4)CC3)c2n1 (racemic) [Example 8, (RS)-3-(2,3-Dihydro-benzo[1,4]dioxin-6-yl)-5-[4-(6-methoxy-[1,5]naphthyridin-4-yl)-piperazin-1-ylmethyl]-oxazolidin-2-one] cannot be ordered by MIC: ≤ 0.031 µg/mL for the first, ≤ 0.031 µg/mL for the second.

COc1ccc2ncnc(N3CCN(CC4CN(c5ccc6c(c5)OCCO6)C(=O)O4)CC3)c2c1 (racemic) [Example 6, (RS)-3-(2,3-Dihydro-benzo[1,4]dioxin-6-yl)-5-[4-(6-methoxy-quinazolin-4-yl)-piperazin-1-ylmethyl]-oxazolidin-2-one] and COc1ccc2nccc(N3CCN(C[C@@H]4CN(c5ccc6c(c5)OCCO6)C(=O)O4)CC3)c2n1 [Example 9, (R)-3-(2,3-Dihydro-benzo[1,4]dioxin-6-yl)-5-[4-(6-methoxy-[1,5]naphthyridin-4-yl)-piperazin-1-ylmethyl]-oxazolidin-2-one] cannot be ordered by MIC: ≤ 0.031 µg/mL for the first, ≤ 0.031 µg/mL for the second.

First: COc1ccc2ncnc(N3CCN(CC4CN(c5ccc6c(c5)NC(=O)CS6)C(=O)O4)CC3)c2c1 (racemic) [Example 7, (RS)-6-{5-[4-(6-Methoxy-quinazolin-4-yl)-piperazin-1-ylmethyl]-2-oxo-oxazolidin-3-yl}-4H-benzo[1,4]thiazin-3-one]
Second: COc1ccc2nccc(N3CCN(CC4CN(c5ccc6ccc(=O)[nH]c6c5)C(=O)O4)CC3)c2n1 (racemic) [Example 111, (RS)-7-{5-[4-(6-Methoxy-[1,5]naphthyridin-4-yl)-piperazin-1-ylmethyl]-2-oxo-oxazolidin-3-yl}-1H-quinolin-2-one]
The MIC of the first is lower: ≤ 0.031 µg/mL for the first, 0.125 µg/mL (≈ 0.257 µM) for the second.

Compared with COc1ccc2nccc(N3CCN(CC4CN(c5ccc(C)cn5)C(=O)O4)CC3)c2n1 (racemic) [Example 43, (RS)-5-[4-(6-Methoxy-[1,5]naphthyridin-4-yl)-piperazin-1-ylmethyl]-3-(5-methyl-pyridin-2-yl)-oxazolidin-2-one], COc1ccc2nccc(N3CCN(CC4CN(c5ccc(C(F)(F)F)cn5)C(=O)O4)CC3)c2n1 (racemic) [Example 44, (RS)-5-[4-(6-Methoxy-[1,5]naphthyridin-4-yl)-piperazin-1-ylmethyl]-3-(5-trifluoromethyl-pyridin-2-yl)-oxazolidin-2-one] is 2-fold lower in MIC: 1 µg/mL (≈ 2.3 µM) for the first, 0.5 µg/mL (≈ 1.02 µM) for the second.

COc1ccc2nccc(N3CC(NCCC4CN(c5ccc6c(c5)NC(=O)CS6)C(=O)O4)C3)c2n1 (racemic) [Example 58, (RS)-6-(5-{2-[1-(6-Methoxy-[1,5]naphthyridin-4-yl)-azetidin-3-ylamino]-ethyl}-2-oxo-oxazolidin-3-yl)-4H-benzo[1,4]thiazin-3-one] and COc1ccc2nccc(N3C[C@@H](O)[C@H](NC[C@@H]4CN(c5ccc6c(c5)NC(=O)CS6)C(=O)O4)C3)c2n1 (relative stereo) [Example 76, 6-((R)-5-{[(3R*,4R*)-4-Hydroxy-1-(6-methoxy-[1,5]naphthyridin-4-yl)-pyrrolidin-3-ylamino]-methyl}-2-oxo-oxazolidin-3-yl)-4H-benzo[1,4]thiazin-3-one] cannot be ordered by MIC: ≤ 0.031 µg/mL for the first, ≤ 0.031 µg/mL for the second.

Going from COc1ccc2nccc(N3CCN(CC4CN(c5cc6c(nn5)OCCO6)C(=O)O4)CC3)c2n1 (racemic) [Example 110, (RS)-3-(6,7-Dihydro-[1,4]dioxino[2,3-c]pyridazin-3-yl)-5-[4-(6-methoxy-[1,5]naphthyridin-4-yl)-piperazin-1-ylmethyl]-oxazolidin-2-one] to COc1ccc2nccc(N3CCN(CC4CN(c5ccc6c(n5)NC(=O)CO6)C(=O)O4)CC3)c2n1 (racemic) [Example 113, (RS)-6-{5-[4-(6-Methoxy-[1,5]naphthyridin-4-yl)-piperazin-1-ylmethyl]-2-oxo-oxazolidin-3-yl}-4H-pyrido[3,2-b][1,4]oxazin-3-one], the MIC falls from 8 µg/mL (≈ 16.7 µM) to ≤ 0.031 µg/mL.

Going from COc1ccc2nccc(N3CC(CNCCC4CN(c5ccc(C)c(F)c5)C(=O)O4)C3)c2n1 (racemic) [Example 149, (RS)-3-(3-Fluoro-4-methyl-phenyl)-5-(2-{[1-(6-methoxy-[1,5]naphthyridin-4-yl)-azetidin-3-ylmethyl]-amino}-ethyl)-oxazolidin-2-one] to COc1ccc2nccc(N3CC(CNC[C@H]4CN(c5ccc6c(c5)OCCO6)C(=O)O4)C3)c2n1 [Example 1, (S)-3-(2,3-Dihydro-benzo[1,4]dioxin-6-yl)-5-({[1-(6-methoxy-[1,5]naphthyridin-4-yl)-azetidin-3-ylmethyl]-amino}-methyl)-oxazolidin-2-one], the MIC rises from 0.063 µg/mL (≈ 0.135 µM) to 0.25 µg/mL (≈ 0.524 µM) (4-fold).

Compared with CCOC(=O)[C@@H]1CN(c2ccnc3ccc(OC)nc23)C[C@H]1NC[C@H]1CN(c2ccc3c(c2)NC(=O)CS3)C(=O)O1 (relative stereo) [Example 73, (3R*,4S*)-1-(6-Methoxy-[1,5]naphthyridin-4-yl)-4-{[(S)-2-oxo-3-(3-oxo-3,4-dihydro-2H-benzo[1,4]thiazin-6-yl)-oxazolidin-5-ylmethyl]amino}-pyrrolidine-3-carboxylic acid ethyl ester], COc1ccc2nccc(N3C[C@@H](NC[C@@H]4CN(c5ccc6c(c5)NC(=O)CS6)C(=O)O4)[C@H](C(=O)O)C3)c2n1 (relative stereo) [Example 74, (3R*,4S*)-1-(6-Methoxy-[1,5]naphthyridin-4-yl)-4-{[(R)-2-oxo-3-(3-oxo-3,4-dihydro-2H-benzo[1,4]thiazin-6-yl)-oxazolidin-5-ylmethyl]-amino}-pyrrolidine-3-carboxylic acid] is higher in MIC: ≤ 0.031 µg/mL for the first, 0.5 µg/mL (≈ 0.908 µM) for the second.

First: COc1ccc2nccc(N3C[C@@H](NC[C@@H]4CN(c5ccc6c(c5)NC(=O)CS6)C(=O)O4)[C@H](OC)C3)c2n1 (relative stereo) [Example 75, 6-((R)-5-{[(3R*,4R*)-4-Methoxy-1-(6-methoxy-[1,5]naphthyridin-4-yl)-pyrrolidin-3-ylamino]-methyl}-2-oxo-oxazolidin-3-yl)-4H-benzo[1,4]thiazin-3-one]
Second: COc1ccc2nccc(N3C[C@@H](O)[C@H](NC[C@@H]4CN(c5ccc6c(c5)OCCO6)C(=O)O4)C3)c2n1 (relative stereo) [Example 77, (R)-3-(2,3-Dihydro-benzo[1,4]dioxin-6-yl)-5-{[(3R*,4R*)-4-hydroxy-1-(6-methoxy-[1,5]naphthyridin-4-yl)-pyrrolidin-3-ylamino]-methyl}-oxazolidin-2-one]
The MIC of the first is lower: ≤ 0.031 µg/mL for the first, 0.25 µg/mL (≈ 0.507 µM) for the second.

Compared with COc1ccc2nccc(N3CCN(C[C@@H]4CN(c5cccc(OC(F)(F)F)c5)C(=O)O4)CC3)c2n1 [Example 10, (R)-5-[4-(6-Methoxy-[1,5]naphthyridin-4-yl)-piperazin-1-ylmethyl]-3-(3-trifluoromethoxy-phenyl)-oxazolidin-2-one], COc1ccc2nccc(N3CCN(C[C@@H]4CN(c5ccc(OC(F)(F)F)cc5)C(=O)O4)CC3)c2n1 [Example 11, (R)-5-[4-(6-Methoxy-[1,5]naphthyridin-4-yl)-piperazin-1-ylmethyl]-3-(4-trifluoromethoxy-phenyl)-oxazolidin-2-one] is 4-fold lower in MIC: 0.25 µg/mL (≈ 0.497 µM) for the first, 0.063 µg/mL (≈ 0.125 µM) for the second.

First: COc1ccc2nccc(N3CCN(C[C@@H]4CN(c5ccccc5)C(=O)O4)CC3)c2n1 [Example 12, (R)-5-[4-(6-Methoxy-[1,5]naphthyridin-4-yl)-piperazin-1-ylmethyl]-3-phenyl-oxazolidin-2-one]
Second: COc1ccc2nccc(N3CCN(C[C@@H]4CN(c5ccc(F)cc5)C(=O)O4)CC3)c2n1 [Example 15, (R)-3-(4-Fluoro-phenyl)-5-[4-(6-methoxy-[1,5]naphthyridin-4-yl)-piperazin-1-ylmethyl]-oxazolidin-2-one]
The MIC of the first is lower: ≤ 0.031 µg/mL for the first, 0.25 µg/mL (≈ 0.571 µM) for the second.

First: COc1ccc2nccc(N3CCN(C[C@@H]4CN(c5ccc(Br)c(F)c5)C(=O)O4)CC3)c2n1 [Example 13, (R)-3-(4-Bromo-3-fluoro-phenyl)-5-[4-(6-methoxy-[1,5]naphthyridin-4-yl)-piperazin-1-ylmethyl]-oxazolidin-2-one]
Second: COc1ccc2nccc(N3CCN(C[C@@H]4CN(c5ccc(OC)c(OC)c5)C(=O)O4)CC3)c2n1 [Example 14, (R)-3-(3,4-Dimethoxy-phenyl)-5-[4-(6-methoxy-[1,5]naphthyridin-4-yl)-piperazin-1-ylmethyl]-oxazolidin-2-one]
The MIC of the first is lower: ≤ 0.031 µg/mL for the first, 2 µg/mL (≈ 4.17 µM) for the second.

In the case of COc1ccc2nccc(N3CC[C@@H]4CN(C[C@@H]5CN(c6ccc7c(c6)NC(=O)CS7)C(=O)O5)C[C@@H]43)c2n1 (relative stereo) [Example 91, 6-{{(R)-5-[(3aR*,6aR*)-1-(6-Methoxy-[1,5]naphthyridin-4-yl)-hexahydro-pyrrolo[3,4-b]pyrrol-5-yl]-methyl}-2-oxo-oxazolidin-3-yl}-4H-benzo[1,4]thiazin-3-one], the “MIC S aureus A798” value is reported as “<=0.031 mg/l”.

In order of rising “MIC S aureus A798” value:
1. COc1ccc2nccc(N3CCN(C[C@H]4CN(c5ccc(C)c(F)c5)C(=O)O4)C(=O)C3)c2n1 (single isomer, unassigned) [Example 100, [(S)-3-(3-Fluoro-4-methyl-phenyl)-2-oxo-oxazolidin-5-ylmethyl]-4-(6-methoxy-[1,5]naphthyridin-4-yl)-piperazin-2-one or [(R)-3-(3-Fluoro-4-methyl-phenyl)-2-oxo-oxazolidin-5-ylmethyl]-4-(6-methoxy-[1,5]naphthyridin-4-yl)-piperazin-2-one]  0.063 µg/mL (≈ 0.135 µM)
2. COc1ccc2nccc(N3CC(CNC(=O)[C@@H]4CN(c5ccc6c(c5)OCCO6)C(=O)O4)C3)c2n1 [Example 2, (S)-3-(2,3-Dihydro-benzo[1,4]dioxin-6-yl)-2-oxo-oxazolidine-5-carboxylic acid[1-(6-methoxy-[1,5]naphthyridin-4-yl)-azetidin-3-ylmethyl]-amide]  4 µg/mL (≈ 8.14 µM)
